Laboratory results: article PMC12394750, “2H-1,4-Benzoxazin-3(4H)-one linked 1,2,3-triazole derivatives and their study on inducing DNA damage in tumor cells” (Frontiers in Pharmacology, 2025)

Tests used:
[1] = tested on: Huh-7 cells; experiment: DNA damage staining (γ-H2AX); format: cell-based, human; conditions: Huh-7, 10, 20 or 30 μM, 24 h
Experimental: In order to further verify the effects of 2H-1,4-benzoxazin-3(4H)-one linked 1,2,3-triazole derivatives on DNA damage, Huh-7 cells were treated with different concentrations (10 μM, 20 μM, or 30 μM) of compounds c5, c14, c16, and c18. After 24 h of treatment, cells were detected with the DNA damage assay kit and observed under a fluorescence microscope.
FIGURE 7 Compounds c5, c14, c16, and c18 affected DNA damage. (A–D) DNA damage detection shown by γ-H2AX staining in Huh-7 cells treated with compounds c5, c14, c16, and c18 (10 μM, 20 μM, or 30 μM).
Huh-7 cells with a density of 2 × 10^3 cells/well were seeded in 96-well plates. Different doses (0 μM, 5 μM, 10 μM, 20 μM, or 30 μM) of the compounds were added to cells for 24 h. A DNA Damage Detection Kit was used to dye the cells. The cell nucleus was stained blue, and DNA-damaged cells were stained green. The cells were observed and photographed by a fluorescent microscope.

[2] = tested on: Huh-7 cells; experiment: Autophagy staining assay (MDC probe); format: cell-based, human; conditions: Huh-7, 10, 20 or 30 μM, 24 h; especially at doses lower than 30 μM
Experimental: To further evaluate the role of 2H-1,4-benzoxazin-3(4H)-one linked 1,2,3-triazole derivatives in regulating autophagy, Huh-7 cells were treated with different doses (10 μM, 20 μM, or 30 μM) of compounds c5, c14, c16, and c18 for 24 h, and the autophagosome was detected by the MDC (monodansylcadaverine) probe. MDC could specifically label autophagosomes, which will show as green, and we can directly observe them using a fluorescence microscope.
FIGURE 8 Compounds c5, c14, c16, and c18 affected autophagy. Autophagy staining in Huh-7 cells treated with compounds c5, c14, c16, and c18 (10 μM, 20 μM, or 30 μM).
Huh-7 cells were seeded in a 96-well plate at a density of 2 × 10^3 cells/well. Cells were treated with compounds at the doses of 0 μM, 5 μM, 10 μM, 20 μM, or 30 μM. After 24 h of treatment, the medium was removed, and cells were stained with monodansylcadaverine for 1 h in the dark at 37 °C. The cells were photographed with confocal microscopy.

[3] = tested on: Huh-7 cells; experiment: Calcein AM/PI live/dead viability assay; format: cell-based, human; conditions: Huh-7, 10, 20 or 30 μM, 24 h
Experimental: To evaluate the anti-proliferative effects of 2H-1,4-benzoxazin-3(4H)-one linked 1,2,3-triazole derivatives, live/dead cell staining was performed using Calcein AM and PI on Huh-7 cells. The cells were treated with different concentrations (10 μM, 20 μM, or 30 μM) of compounds c5, c14, c16, and c18 for 24 h. Living cells were stained green by Calcein AM, while dead cells were stained red by PI.
FIGURE 4 Compounds c5, c14, c16, and c18 increased dead cells and decreased living cells. (A–D) Huh-7 cells were treated with different concentrations of compounds c5, c14, c16, and c18 (10 μM, 20 μM, or 30 μM) for 24 h. Living and dead cells were stained with Calcein AM and PI, respectively, and then observed by confocal microscopy. Data were presented as means ± SEM; *P < 0.05.
A live and dead viability assay was performed using the Calcein/PI Live/Dead Viability Assay Kit. Cells were plated at a density of 2 × 10^3 cells per well in a 96-well plate to adhere overnight. Then, compounds were added with different concentrations for 24 h. The medium was replaced with cell culture medium containing Calcein AM and propidium iodide for 30 min at 37 °C in the dark. Cells were then observed and photographed by confocal microscopy.

[4] = tested on: Huh-7 cells; experiment: RT-PCR gene expression; format: cell-based, human; conditions: Huh-7, 72 h; for Caspase-7 gene expression: c5, c14 30 μM; for ATG7 gene expression / H2AX gene expression / Keap1 gene expression / TNF-α gene expression / p21 gene expression / p53 gene expression: c5, c14, c16 30 μM; for Bax gene expression / Bcl2 gene expression: c14, c16 30 μM
Experimental: To investigate the molecular mechanisms underlying the anti-tumor activity of 2H-1,4-benzoxazin-3(4H)-one linked 1,2,3-triazole derivatives, we examined the expression of key genes involved in cell growth and death, including those related to DNA damage, oxidative stress, apoptosis, and autophagy. Huh-7 cells were treated with compounds c5 (30 μM), c14 (30 μM), c16 (30 μM), and c18 (20 μM) for 72 h, followed by RT-PCR analysis.
FIGURE 5 Compounds c5, c14, c16, and c18 increased the gene expression. (A–D) Huh-7 cells were treated with different concentrations of compounds c5, c14, c16, and c18 (20 or 30 μM) for 72 h. Gene expressions were detected by RT-PCR. Data were presented as means ± SEM; *P < 0.05.
Huh-7 cells were seeded in a 12-well plate and treated with compounds for 72 h. Total RNA was extracted using TRIzol reagent (Ambion, United States), and RT-PCR was performed using PowerUp™ SYBR™ Green Master Mix (ABI, United States). Gene expression was normalized to GAPDH. Values were expressed as mean ± SEM. Statistical significance was assessed using a two-tailed Student’s t-test. P < 0.05 was considered statistically significant.

[5] = tested on: MCF-7 (breast cancer); experiment: CCK-8 cell viability, MCF-7; format: cell-based; conditions: Homo sapiens, MCF7, 72 h
Experimental: To assess the cytotoxic potential of the newly synthesized compounds c1–c20, a panel of human tumor cell lines—including Huh-7 (hepatocellular carcinoma), MCF-7 (breast cancer), and A549 (lung cancer)—was treated with each compound at a concentration of 50 μM for 72 h. Cell viability and cytotoxicity were evaluated using the CCK-8 assay.
Cells were cultured in DMEM or RPMI 1640 medium with 10% FBS and 1% penicillin/streptomycin at 37 °C and 5% CO2. A CCK-8 assay was performed with several human cancer cell lines, including A549, Huh-7, MCF-7, HCT-116, and SKOV3, according to the instructions. Cells were plated at a density of 1,000–3,000 cells per well in a 96-well plate. After 24-h incubation, cells were treated with 40 μM compounds for 48 h or 50 μM compounds for 72 h. Cell viability was measured by adding 10 μL per well of CCK-8 reagent, which was dissolved in the cell culture medium, for 1 hour. Absorbance was taken at 450 nm using a microplate reader. The IC50 values of the compounds were further determined. Cells were seeded in a 96-well plate at a density of 1 × 10^3 cells/well. After adhering overnight, cells treated with […] concentrations (10 μM, 20 μM, 40 µM, or 80 μM) were used to draw the dose–response curve, and IC50 values were calculated by GraphPad Prism software. The CCK-8 assay was performed in triplicate, and each experiment was repeated at least three times. The results were expressed as mean ± SEM, and P < 0.05 was considered statistically significant.

[6] = CCK-8 cell viability, L02; format: cell-based; conditions: human, L02 normal liver cells

| Compound | DNA damage (γ-H2AX staining) [1] | Autophagosomes (MDC probe) [2] | Dead cells (PI) in live/dead staining [3] | Atg5 gene expression ([4]; c5 30 μM) | Gpx4 gene expression ([4]; c5 30 μM) | Nrf2 gene expression ([4]; c5 30 μM) | Caspase-7 gene expression [4] | ATG7 gene expression ([4]; c18 20 μM) | H2AX gene expression ([4]; c18 20 μM) | Keap1 gene expression ([4]; c18 20 μM) | TNF-α gene expression ([4]; c18 20 μM) | p21 gene expression ([4]; c18 20 μM) | p53 gene expression ([4]; c18 20 μM) | viability at 50 µM [5] | viability at 72 h, 50 µM [6] | autophagy-related gene expression ([4]; c14 30 μM) | caspase-6 gene expression ([4]; c14 30 μM) | Bax gene expression [4] | Bcl2 gene expression [4] | apoptosis-related gene expression ([4]; c18 20 μM) |
| --- | --- | --- | --- | --- | --- | --- | --- | --- | --- | --- | --- | --- | --- | --- | --- | --- | --- | --- | --- | --- |
| O=C1COc2cc(NC(=O)c3cccc(-c4cn(Cc5ccc(Br)cc5)nn4)c3)ccc2N1 [compound c5, 3-(1-(4-bromobenzyl)-1H-1,2,3-triazol-4-yl)-N-(3-oxo-3,4-dihydro-2H-benzo[b][1,4]oxazin-7-yl)benzamide] | significantly induce cell DNA damage | increased | dose-dependent increase | remained unchanged | either downregulated or unchanged | either downregulated or unchanged | notably increased | downregulated | no significant changes | significantly upregulated | significantly upregulated | no significant changes | no significant changes | 107 ± 2.85% | 101 ± 3.35% |  |  |  |  |  |
| O=C1COc2cc(NC(=O)c3cccc(-c4cn(Cc5cccc(F)c5)nn4)c3)ccc2N1 [compound c14, 3-(1-(3-fluorobenzyl)-1H-1,2,3-triazol-4-yl)-N-(3-oxo-3,4-dihydro-2H-benzo[b][1,4]oxazin-7-yl)benzamide] | significantly induce cell DNA damage | increased | dose-dependent increase |  |  |  | no significant changes |  | significantly upregulated | significantly increased |  | unchanged or downregulated | unchanged or downregulated | 106 ± 1.48% | 116 ± 1.18% | No differences | no significant changes | no significant changes | significantly increased |  |
| O=C1COc2cc(NC(=O)c3cccc(-c4cn(Cc5ccc(C(F)(F)F)cc5)nn4)c3)ccc2N1 [compound c16, N-(3-oxo-3,4-dihydro-2H-benzo[b][1,4]oxazin-7-yl)-3-(1-(4-(trifluoromethyl)benzyl)-1H-1,2,3-triazol-4-yl)benzamide] | significantly induce cell DNA damage | increased | dose-dependent increase |  |  |  |  | downregulated | markedly upregulated |  | markedly upregulated |  | markedly upregulated | 101.6 ± 0.92% | 117 ± 1.41% |  |  | elevated | elevated |  |
| O=C1COc2cc(NC(=O)c3cccc(-c4cn(Cc5ccc(Cl)cc5)nn4)c3)ccc2N1 [compound c18, 3-(1-(4-chlorobenzyl)-1H-1,2,3-triazol-4-yl)-N-(3-oxo-3,4-dihydro-2H-benzo[b][1,4]oxazin-7-yl)benzamide] | significantly induce cell DNA damage | increased | dose-dependent increase |  |  |  |  | downregulated |  | dramatically upregulated |  | dramatically upregulated |  | 103 ± 1.83% | 117 ± 1.27% |  |  |  |  | no changes |
